Reference: article PMC8762706, “Design of Coibamide A Mimetics with Improved Cellular Bioactivity” (ACS Medicinal Chemistry Letters, 2021)
Like-named read-outs stand apart in the source and are kept apart here. Where a SMILES comes first, the peptide text is derived from it. Bridges are numbered along the chain shown (N, C = ends). [ ]: non-standard residue; d: D form. The star is where a group is joined. Phe(4-NO2) = N[C@@H](Cc1ccc([N+](=O)[O-])cc1)C(=O)O; Phe(4-N3) = [N-]=[N+]=Nc1ccc(C[C@H](N)C(=O)O)cc1; Phe(4-tBu) = CC(C)(C)c1ccc(C[C@H](N)C(=O)O)cc1; Bip = N[C@@H](Cc1ccc(-c2ccccc2)cc1)C(=O)O; NMe2Val = CC(C)[C@@H](C(=O)*)N(C)C; NMeLys(Me) = CNCCCC[C@H](NC)C(=O)O; NMeF = CN[C@@H](Cc1ccccc1)C(=O)O; NMeI = CC[C@H](C)[C@H](NC)C(=O)O; NMeT = CN[C@H](C(=O)O)[C@@H](C)O; Tic = O=C(O)[C@@H]1Cc2ccccc2CN1; Lys(Me) = CNCCCC[C@H](N)C(=O)O; NMeL = CN[C@@H](CC(C)C)C(=O)O; NMeOrn = CN[C@@H](CCCN)C(=O)O; dNMeOrn = CN[C@H](CCCN)C(=O)O; NMeK = CN[C@@H](CCCCN)C(=O)O; dHiv = CC(C)[C@@H](O)C(=O)O; NMeS = CN[C@@H](CO)C(=O)O; NMeA = CN[C@@H](C)C(=O)O; dNMeA = CN[C@H](C)C(=O)O; tBu = CC(C)(C)*

Test system: A549 cells
Test: Growth inhibition assay (MTS) in A549 cells
Type: cell-based
Conditions: for cytotoxicity / bioactivity in words: MTS assay
Protocol: Growth Inhibition AssayS3
A549 cells were cultured in Dulbecco’s modified Eagle’s medium (DMEM; Sigma) supplemented with 10% (v/v) fetal bovine serum at 37 °C in a 5% CO2-incubator. Growth inhibition assays using A549 cells were performed in 96-well plates (BD Falcon). A549 cells were seeded at 1000 cells/well in 90 μL of culture media, respectively, and were cultured for 24 h. Chemical compounds in DMSO were diluted 50-fold with the culture medium in advance. 30 μL of the chemical diluents were added.
The final volume of DMSO in the medium was equal to 0.5% (v/v). The cells under chemical treatment were incubated for a further 72 h. The wells in the plates were washed twice with the cultured medium without phenol-red. After 1-hour incubation with 100 μL of the medium, the cell culture in each well was supplemented with 20 μL of the MTS reagent (Promega), followed by incubation for additional 40 min. Absorbance at 490 nm of each well was measured using a Wallac 1420 ARVO SX multilabel counter (Perkin Elmer). Three experiments were performed per condition and the averages of inhibition rates in each condition were evaluated to determine IC50 values using the GraphPad Prism software.

[1] = read-out: IC50 (concentration for 50% growth inhibition of A549 cells), MTS assay, 72 h treatment, 0.5% DMSO, absorbance 490 nm, n = 3
[2] = read-out: IC50 (concentration for 50% growth inhibition of A549 cells), MTS assay, 72 h treatment, n = 3

Row | SMILES | IC50 [1] [nM] | other results
1 | CC[C@H](C)[C@H]1C(=O)N[C@@H](C)C(=O)N(C)[C@@H](CC(C)C)C(=O)N[C@@H](Cc2ccc(OC)cc2)C(=O)NCCCC[C@H](N(C)C(=O)[C@H](CC(C)C)N(C)C(=O)[C@H](C)N(C)C(=O)[C@H](OC(=O)[C@H](C(C)C)N(C)C)C(C)C)C(=O)N(C)[C@@H](C)C(=O)N1C [2e] (NMe2Val-[dHiv][NMeA][NMeL][NMeK][NMeA][NMeI]A[NMeL]Y(Me); lactam 4-C) | 850 ± 20 | 
2 | CC[C@H](C)[C@H]1C(=O)N[C@@H](C)C(=O)N(C)[C@@H](CC(C)C)C(=O)N[C@@H](Cc2ccc(OC)cc2)C(=O)N(C)CCC[C@@H](N(C)C(=O)[C@H](CC(C)C)N(C)C(=O)[C@H](C)N(C)C(=O)[C@H](OC(=O)[C@H](C(C)C)N(C)C)C(C)C)C(=O)N(C)[C@@H](C)C(=O)N1C [2d] | > 10000 | 
3 | CC[C@H](C)[C@H]1C(=O)N[C@@H](C)C(=O)N(C)[C@@H](CC(C)C)C(=O)N[C@@H](Cc2ccc(-c3ccccc3)cc2)C(=O)N(C)[C@H](C)C(=O)O[C@H](C)[C@H](N(C)C(=O)[C@H](CC(C)C)N(C)C(=O)[C@H](C)N(C)C(=O)[C@H](OC(=O)[C@H](C(C)C)N(C)C)C(C)C)C(=O)N(C)[C@@H](C)C(=O)N1C [compound 12, [MeAla^3, MeAla^6, Bph^10]-CbA] (NMe2Val-[dHiv][NMeA][NMeL][NMeT][NMeA][NMeI]A[NMeL][Bip][dNMeA]; ester 4-C) |  | fold more potent cytotoxicity than 1 (coibamide A) (ratio of IC50 values to 1): 5.6 fold; IC50 [2]: 0.25 nM
4 | CC[C@H](C)[C@H]1C(=O)N[C@@H](C)C(=O)N(C)[C@@H](CC(C)C)C(=O)N[C@@H](Cc2ccc(C(C)(C)C)cc2)C(=O)N(C)CCCC[C@H](N(C)C(=O)[C@H](CC(C)C)N(C)C(=O)[C@H](C)N(C)C(=O)[C@H](OC(=O)[C@H](C(C)C)N(C)C)C(C)C)C(=O)N(C)[C@@H](C)C(=O)N1C [10g] (NMe2Val-[dHiv][NMeA][NMeL][NMeLys(Me)][NMeA][NMeI]A[NMeL][Phe(4-tBu)]; lactam 4-C) | 610 ± 210 | 
5 | CC[C@H](C)[C@H]1C(=O)N[C@@H](C)C(=O)N(C)[C@@H](CC(C)C)C(=O)N[C@@H](Cc2ccc(OC)cc2)C(=O)NCCC[C@H](N(C)C(=O)[C@H](CC(C)C)N(C)C(=O)[C@H](C)N(C)C(=O)[C@H](OC(=O)[C@H](C(C)C)N(C)C)C(C)C)C(=O)N(C)[C@@H](C)C(=O)N1C [2g] (NMe2Val-[dHiv][NMeA][NMeL][NMeOrn][NMeA][NMeI]A[NMeL]Y(Me); lactam 4-C) | > 10000 | 
6 | CC[C@H](C)[C@H]1C(=O)N[C@@H](C)C(=O)N(C)[C@@H](CC(C)C)C(=O)N[C@@H](Cc2ccc(OC)cc2)C(=O)N(C)[C@H](C)C(=O)O[C@H](C)[C@H](N(C)C(=O)[C@H](CC(C)C)N(C)C(=O)[C@H](COC)N(C)C(=O)[C@H](OC(=O)[C@H](C(C)C)N(C)C)C(C)C)C(=O)N(C)[C@@H](COC)C(=O)N1C [coibamide A] (NMe2Val-[dHiv][NMeS](Me)[NMeL][NMeT][NMeS](Me)[NMeI]A[NMeL]Y(Me)[dNMeA]; ester 4-C) |  | IC50 [2]: 1.4 ± 0.4 nM
7 | CC[C@H](C)[C@H]1C(=O)N[C@@H](C)C(=O)N(C)[C@@H](CC(C)C)C(=O)N[C@@H](Cc2ccc(OC)cc2)C(=O)N(C)CCCC[C@H](NC(=O)[C@H](CC(C)C)N(C)C(=O)[C@H](C)N(C)C(=O)[C@H](OC(=O)[C@H](C(C)C)N(C)C)C(C)C)C(=O)N(C)[C@@H](C)C(=O)N1C [8c] (NMe2Val-[dHiv][NMeA][NMeL][Lys(Me)][NMeA][NMeI]A[NMeL]Y(Me); lactam 4-C) | 6400 ± 1700 | 
8 | CC[C@H](C)[C@H]1C(=O)N[C@H](C)C(=O)N(C)[C@@H](CC(C)C)C(=O)N[C@@H](Cc2ccc(OC)cc2)C(=O)N(C)CCCC[C@H](N(C)C(=O)[C@H](CC(C)C)N(C)C(=O)[C@H](C)N(C)C(=O)[C@H](OC(=O)[C@H](C(C)C)N(C)C)C(C)C)C(=O)N(C)[C@@H](C)C(=O)N1C [9c] (NMe2Val-[dHiv][NMeA][NMeL][NMeLys(Me)][NMeA][NMeI][dA][NMeL]Y(Me); lactam 4-C) | > 10000 | 
9 | CC[C@H](C)[C@H]1C(=O)N[C@@H](C)C(=O)N(C)[C@@H](CC(C)C)C(=O)N[C@@H](Cc2ccc(OC(C)(C)C)cc2)C(=O)N(C)CCCC[C@H](N(C)C(=O)[C@H](CC(C)C)N(C)C(=O)[C@H](C)N(C)C(=O)[C@H](OC(=O)[C@H](C(C)C)N(C)C)C(C)C)C(=O)N(C)[C@@H](C)C(=O)N1C [10h] (NMe2Val-[dHiv][NMeA][NMeL][NMeLys(Me)][NMeA][NMeI]A[NMeL]Y(tBu); lactam 4-C) | 1000 ± 100 | 
10 | CC[C@H](C)[C@H]1C(=O)N[C@@H](C)C(=O)N(C)[C@@H](CC(C)C)C(=O)N[C@@H](Cc2ccc(OC)cc2)C(=O)NCCC[C@@H](N(C)C(=O)[C@H](CC(C)C)N(C)C(=O)[C@H](C)N(C)C(=O)[C@H](OC(=O)[C@H](C(C)C)N(C)C)C(C)C)C(=O)N(C)[C@@H](C)C(=O)N1C [2h] (NMe2Val-[dHiv][NMeA][NMeL][dNMeOrn][NMeA][NMeI]A[NMeL]Y(Me); lactam 4-C) | > 10000 | 
11 | CC[C@H](C)[C@H]1C(=O)N[C@@H](C)C(=O)N(C)[C@@H](CC(C)C)C(=O)N[C@@H](Cc2ccc([N+](=O)[O-])cc2)C(=O)N(C)CCCC[C@H](N(C)C(=O)[C@H](CC(C)C)N(C)C(=O)[C@H](C)N(C)C(=O)[C@H](OC(=O)[C@H](C(C)C)N(C)C)C(C)C)C(=O)N(C)[C@@H](C)C(=O)N1C [10b] (NMe2Val-[dHiv][NMeA][NMeL][NMeLys(Me)][NMeA][NMeI]A[NMeL][Phe(4-NO2)]; lactam 4-C) | 1100 ± 200 | 
12 | CC[C@H](C)[C@H]1C(=O)N[C@@H](C)C(=O)N(C)[C@@H](CC(C)C)C(=O)N[C@@H](Cc2ccc(N=[N+]=[N-])cc2)C(=O)N(C)CCCC[C@H](N(C)C(=O)[C@H](CC(C)C)N(C)C(=O)[C@H](C)N(C)C(=O)[C@H](OC(=O)[C@H](C(C)C)N(C)C)C(C)C)C(=O)N(C)[C@@H](C)C(=O)N1C [10e] (NMe2Val-[dHiv][NMeA][NMeL][NMeLys(Me)][NMeA][NMeI]A[NMeL][Phe(4-N3)]; lactam 4-C) | 380 ± 50 | 
13 | CC[C@H](C)[C@H]1C(=O)N[C@@H](C)C(=O)N(C)[C@@H](CC(C)C)C(=O)N2Cc3ccccc3C[C@H]2C(=O)N(C)CCCC[C@H](N(C)C(=O)[C@H](CC(C)C)N(C)C(=O)[C@H](C)N(C)C(=O)[C@H](OC(=O)[C@H](C(C)C)N(C)C)C(C)C)C(=O)N(C)[C@@H](C)C(=O)N1C [10o] (NMe2Val-[dHiv][NMeA][NMeL][NMeLys(Me)][NMeA][NMeI]A[NMeL][Tic]; lactam 4-C) | > 10000 | cytotoxicity / bioactivity in words: loss of bioactivity
14 | CC[C@H](C)[C@H]1C(=O)N[C@@H](C)C(=O)N(C)[C@@H](CC(C)C)C(=O)N[C@H](Cc2ccc(OC)cc2)C(=O)N(C)CCCC[C@H](N(C)C(=O)[C@H](CC(C)C)N(C)C(=O)[C@H](C)N(C)C(=O)[C@H](OC(=O)[C@H](C(C)C)N(C)C)C(C)C)C(=O)N(C)[C@@H](C)C(=O)N1C [9e] (NMe2Val-[dHiv][NMeA][NMeL][NMeLys(Me)][NMeA][NMeI]A[NMeL][dY](Me); lactam 4-C) | > 10000 | 
15 | CC[C@H](C)[C@H]1C(=O)N[C@@H](C)C(=O)N(C)[C@@H](CC(C)C)C(=O)N(C)[C@@H](Cc2ccccc2)C(=O)N(C)CCCC[C@H](N(C)C(=O)[C@H](CC(C)C)N(C)C(=O)[C@H](C)N(C)C(=O)[C@H](OC(=O)[C@H](C(C)C)N(C)C)C(C)C)C(=O)N(C)[C@@H](C)C(=O)N1C [10n] (NMe2Val-[dHiv][NMeA][NMeL][NMeLys(Me)][NMeA][NMeI]A[NMeL][NMeF]; lactam 4-C) | > 10000 | cytotoxicity / bioactivity in words: loss of bioactivity
